Source: PMC5432571 (Frontiers in Molecular Neuroscience, 2017)

Columns and labels:
[1] = tested on: α2 GlyRs; conditions: read-out: mean value of EC50 for glycine; ref Maleeva et al., 2015; cited from earlier work
[2] = biological target: T1, α2β GlyR (Homo sapiens, UniProt P23416+P48167); experiment: Whole-cell patch-clamp of glycine-induced currents, heteromeric α2β GlyR expressed in CHO cells; assay type: cell-based; conditions: PTX 20 μM; glycine 30 μM; Vhold −30 mV
T1 construct: expressed in transfected cells; host or cells: CHO cells
Method: (§1) The experiments were carried out on cultured Chinese hamster ovary (CHO) cells obtained from the American Type Tissue Culture Collection (ATCC, Molsheim, France) that were maintained in culture conditions as previously described (Mukhtarov et al., [2013]; Maleeva et al., [2015]).
(§2) One day before transfection, cells were plated on the cover slips (12 mm in diameter) and placed inside 35-mm cell culture dishes with 2 ml of medium. Transfection was performed using the Lipofectamine 3000 protocol (Life Technology, USA). To facilitate identification of transfected cells a green fluorescent protein (GFP) was added to the transfection mixture. For expression of functional heteromeric receptors, cells were simultaneously transfected with cDNAs of α and β subunits in the ratio 1:10. Three hours after the initial exposure of cells to the cDNAs the culture medium was replaced with that containing strychnine (1 μM), which prevents spontaneous activation of GlyRs. Electrophysiological recordings were performed in the fluorescent cells 24–72 h after transfection.
(§3) Whole-cell and outside-out recordings were performed at room temperature (20–25°C) using an EPC-9 amplifier (HEKA Elektronik, Germany). Cells were continuously superfused with external solution containing (mM): NaCl 140, CaCl2 2, KCl 2.8, MgCl2 4, HEPES 20, glucose 10; pH 7.4; 320–330 mOsm. Intracellular solution used for filling recording patch pipettes contained (mM): CsCl 140, CaCl2 6, MgCl2 2, MgATP 2, NaGTP 0.4, HEPES/CsOH 10, BAPTA (tetrapotassium salt) 2; pH 7.3; 290 mOsm. Two different protocols of solutions application were used in this study. […] A “ramp protocol” implies the gradual change of Vhold alternately from −80 to +80 mV and from +80 to −80 mV during 1 s, Vhold was fixed at −80 or +80 mV at the beginning and at the end of the ramp for 500 ms (Figure 2B).
(§4) Recording pipettes were pulled from borosilicate glass capillaries (Harvard Apparatus Ltd, USA) and had resistances of 5–10 MOhm. For the rapid replacement of the solutions, the fast application system was used. Three parallel rectangular tubes (100 × 100 μm) were positioned 40–50 μm above the recorded cell. The movement of the tubes was controlled by a computer-driven fast exchange system (SF 77A Perfusion Fast-Step, Warner, USA) allowing a 10–90% solution exchange in 3–5 ms, as measured by open electrode controls (1/10 external solution/water). Cells with low input resistance (<150 MOhm) and a rapid run-down (>30% with repetitive application) were excluded from analysis.
(§5) Electrophysiological recordings were performed using PatchMaster (HEKA Electronic, Germany) software.

[3] = biological target: T2, homomeric α1 GlyR (Homo sapiens, UniProt P23415); experiment: Whole-cell patch-clamp of glycine-induced currents, α1 GlyR expressed in CHO cells; assay type: cell-based; conditions: PTX 20 μM; glycine 30 μM; Vhold −30 mV
T2 construct: expressed in transfected cells; host or cells: CHO cells
T2 sequence (P23415 29-449 isoform P23415-2 limits assumed): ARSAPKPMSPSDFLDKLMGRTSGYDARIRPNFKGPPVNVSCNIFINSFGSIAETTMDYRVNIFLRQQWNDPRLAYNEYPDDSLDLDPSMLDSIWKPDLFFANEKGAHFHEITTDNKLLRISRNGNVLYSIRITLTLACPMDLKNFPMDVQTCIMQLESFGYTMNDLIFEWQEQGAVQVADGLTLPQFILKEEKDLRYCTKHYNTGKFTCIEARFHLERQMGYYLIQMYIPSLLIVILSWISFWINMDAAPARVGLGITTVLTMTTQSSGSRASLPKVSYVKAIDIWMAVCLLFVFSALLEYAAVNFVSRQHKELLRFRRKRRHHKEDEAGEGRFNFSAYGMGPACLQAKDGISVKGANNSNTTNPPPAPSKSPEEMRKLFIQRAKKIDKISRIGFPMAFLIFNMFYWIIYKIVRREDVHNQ
Method: as §1, §2, §3, §4, §5
(§6) The fractional electrical distance from the external side of the membrane (δ) at which bound NFA blocked the current was calculated using the Woodhull equation: IC50(V)=IC50(0) exp (−δFV/RT), where IC50(V) is IC50 at the given membrane potential, IC50(0) – at 0 mV, V – membrane potential and F, R, T have their usual meanings. δ was determined from a plot of IC50 values against membrane potential.

[4] = biological target: T3, α2 GlyR (Homo sapiens, UniProt P23416); experiment: Whole-cell patch-clamp of glycine-induced currents, α2 GlyR expressed in CHO cells; assay type: cell-based; conditions: PTX 20 μM; glycine 30 μM; Vhold −30 mV
T3 construct: expressed in transfected cells; host or cells: CHO cells
T3 sequence (P23416 28-452 isoform P23416-2 limits assumed): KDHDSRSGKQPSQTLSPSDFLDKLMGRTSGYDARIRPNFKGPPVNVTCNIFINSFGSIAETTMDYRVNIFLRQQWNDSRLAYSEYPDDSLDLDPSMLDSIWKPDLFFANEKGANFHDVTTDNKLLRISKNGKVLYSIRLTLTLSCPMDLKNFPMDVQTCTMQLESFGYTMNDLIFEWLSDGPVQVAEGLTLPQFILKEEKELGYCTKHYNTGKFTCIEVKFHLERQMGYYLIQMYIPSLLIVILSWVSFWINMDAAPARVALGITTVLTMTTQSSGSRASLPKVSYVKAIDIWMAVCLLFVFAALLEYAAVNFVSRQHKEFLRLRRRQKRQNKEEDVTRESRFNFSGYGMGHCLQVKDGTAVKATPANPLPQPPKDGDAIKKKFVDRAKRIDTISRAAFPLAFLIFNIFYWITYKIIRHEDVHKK
Method: as §1, §2, §3, §4, §5, §6

[5] = biological target: T4, α1β GlyR (Homo sapiens, UniProt P23415+P48167); experiment: Whole-cell patch-clamp of glycine-induced currents, heteromeric α1β GlyR expressed in CHO cells; assay type: cell-based; conditions: PTX 20 μM; glycine 30 μM; Vhold −30 mV
T4 construct: expressed in transfected cells; host or cells: CHO cells
Method: as §1, §2, §3, §4, §5

T1 sequence (P48167 23-497, one chain of several): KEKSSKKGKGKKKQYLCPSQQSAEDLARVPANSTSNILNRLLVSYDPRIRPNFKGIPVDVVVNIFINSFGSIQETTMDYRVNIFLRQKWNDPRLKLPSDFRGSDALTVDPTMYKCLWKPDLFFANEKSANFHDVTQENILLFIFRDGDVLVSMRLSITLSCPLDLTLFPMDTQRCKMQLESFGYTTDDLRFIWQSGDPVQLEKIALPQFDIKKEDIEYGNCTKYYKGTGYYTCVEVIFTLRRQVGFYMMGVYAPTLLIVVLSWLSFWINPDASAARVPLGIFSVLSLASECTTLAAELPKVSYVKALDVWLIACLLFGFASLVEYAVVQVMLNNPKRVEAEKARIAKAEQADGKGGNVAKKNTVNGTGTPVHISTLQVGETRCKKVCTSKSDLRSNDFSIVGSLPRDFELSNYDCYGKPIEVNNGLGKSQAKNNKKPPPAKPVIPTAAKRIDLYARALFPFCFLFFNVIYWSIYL
T4 sequence (P48167 23-497, one chain of several): as above

Row | Compound | EC50 [1] [µM] | current, % from the control [2] [%] | amplitude of current, % of the control [3] [%] | amplitude of current, % of the control [4] [%] | current, % from the control [5] [%]
1 | NCC(=O)O [glycine] | 42 ± 2 |  |  |  | 
2 | picrotoxin [PTX] |  | 41 ± 4 | 27 ± 3 | 3 ± 1 | 75 ± 2
